This is an account of results in ChEMBL document CHEMBL3120061, “Novel spiroketal pyrrolidine GSK2336805 potently inhibits key hepatitis C virus genotype 1b mutants: from lead to clinical compound” (J Med Chem, 2014).

The test system of test [1] is Hepatitis C virus. Nature of the test: Antiviral activity against Hepatitis C virus genotype 1b in Huh-luc/neo-ET replicon cells after 48 hrs by replicon-based luciferase assay. The class given is functional, organism-based, Hepacivirus hominis.
The subject of test [2] is Hepatitis C virus. The test can be described thus: Antiviral activity against Hepatitis C virus genotype 1a in Huh-luc/neo-ET replicon cells after 48 hrs by replicon-based luciferase assay. Particulars: subtype 1a. The test is classed as functional, organism-based, Hepacivirus hominis. A general note: In antiviral work, replicon cells carry a viral genome segment that copies itself.

One may read the EC50 as the concentration giving half of the maximal effect. Low values mean higher potency in that assay, high ones lower potency in that assay. For `COC(=O)N[C@H](C(=O)N1CCC[C@H]1c1ncc(-c2ccc(-c3ccc(-c4cnc([C@@H]5COC6(CCOCC6)N5C(=O)OCc5ccccc5)[nH]4)cc3)cc2)[nH]1)C(C)C`, the EC50 with Hepatitis C virus [1] was 0.002 nM; in the test on Hepatitis C virus [2], 1.58 nM.
For `COC(=O)NCC(=O)N1CC2(C[C@H]1c1ncc(-c3ccc(-c4ccc(-c5cnc([C@@H]6CCCN6C(=O)[C@@H](NC(=O)OC)C(C)C)[nH]5)cc4)cc3)[nH]1)SCCS2`, the EC50 with Hepatitis C virus [1] was 0.00501 nM; in the test with Hepatitis C virus [2], 0.631 nM.
In the case of `COC(=O)N[C@H](C(=O)N1CC2(CCN(C(=O)OC)CC2)CC1c1ncc(-c2ccc(-c3ccc(-c4cnc([C@@H]5CCCN5C(=O)[C@@H](NC(=O)OC)C(C)C)[nH]4)cc3)cc2)[nH]1)C(C)C` (mixture of isomers), the values for the EC50 in the test with Hepatitis C virus [1] and in the test with Hepatitis C virus [2] were 0.0158 nM and 0.794 nM, respectively.
As for `COC(=O)N[C@H](C(=O)N1CCC[C@H]1c1ncc(-c2ccc(-c3ccc(-c4cnc([C@@H]5CC6(CN5C(=O)[C@@H](NC(=O)OC)C(C)C)OCC(C)(C)CO6)[nH]4)cc3)cc2)[nH]1)C(C)C`, the EC50 with Hepatitis C virus [1] was 0.00251 nM; in the test with Hepatitis C virus [2], 0.794 nM.
For the molecule `COC(=O)N[C@@H](CC(C)C)C(=O)N1C(c2ncc(-c3ccc(-c4ccc(-c5cnc([C@@H]6CCCN6C(=O)[C@@H](NC(=O)OC)C(C)C)[nH]5)cc4)cc3)[nH]2)CCC12CCC(F)(F)CC2` (some centres not stated), the EC50 is 0.0126 nM with Hepatitis C virus [1] and 2 nM with Hepatitis C virus [2].
For the molecule `COC(=O)N[C@H](C(=O)N1CC2(CCNCC2)CC1c1ncc(-c2ccc(-c3ccc(-c4cnc([C@@H]5CCCN5C(=O)[C@@H](NC(=O)OC)C(C)C)[nH]4)cc3)cc2)[nH]1)C(C)C` (mixture of isomers), the figures for the 50% effective concentration (EC50) in the test with Hepatitis C virus [1] and with Hepatitis C virus [2] were 1.58 nM and > 31.6 nM, respectively.
On the same counts, the results for `COC(=O)N[C@H](C(=O)N1CC2(CC1c1ncc(-c3ccc(-c4ccc(-c5cnc([C@@H]6CCCN6C(=O)[C@@H](NC(=O)OC)C(C)C)[nH]5)cc4)cc3)[nH]1)CN(C(=O)OC)C2)C(C)C` (mixture of isomers) are 0.0501 nM and 2 nM.
On the same counts, the results for `COC(=O)N[C@H](C(=O)N1CCC[C@H]1c1ncc(-c2ccc(-c3ccc(-c4cnc(C5CCC6(CCOCC6)N5C(C)=O)[nH]4)cc3)cc2)[nH]1)C(C)C` (some centres not stated) are 0.0126 nM and 0.316 nM.
Consider `O=C(Nc1cccnc1)c1ccc(-c2csc(NC(=O)[C@@H]3COC4(CCOCC4)N3C(=O)OCc3ccccc3)n2)cc1`, for which the EC50 with Hepatitis C virus [1] is 0.251 nM; in the test with Hepatitis C virus [2], > 20000 nM.
On the same counts, the results for `COC(=O)N[C@H](C(=O)N1CC2(CCN(C(=O)OC(C)(C)C)CC2)CC1c1ncc(-c2ccc(-c3ccc(-c4cnc([C@@H]5CCCN5C(=O)[C@@H](NC(=O)OC)C(C)C)[nH]4)cc3)cc2)[nH]1)C(C)C` (mixture of isomers) are 0.0398 nM and 10 nM.
`COC(=O)N[C@H](C(=O)N1CC2(CC1c1ncc(-c3ccc(-c4ccc(-c5cnc([C@@H]6CCCN6C(=O)[C@@H](NC(=O)OC)C(C)C)[nH]5)cc4)cc3)[nH]1)CN(S(C)(=O)=O)C2)C(C)C` (mixture of isomers): the EC50 with Hepatitis C virus [1] is 0.0501 nM; with Hepatitis C virus [2] it was 1.26 nM.
`COC(=O)N[C@H](C(=O)N1CC2(CCOCC2)CC1c1ncc(-c2ccc(-c3ccc(-c4cnc([C@@H]5CCCN5C(=O)[C@@H](NC(=O)OC)C(C)C)[nH]4)cc3)cc2)[nH]1)C(C)C` (mixture of isomers): the EC50 with Hepatitis C virus [1] was 0.0158 nM; in the test on Hepatitis C virus [2], 0.0631 nM.
As for `COC(=O)N[C@H](C(=O)N1CCC[C@H]1c1ncc(-c2ccc(-c3ccc(-c4cnc(C5CCC6(CCOCC6)N5C(=O)OCc5ccccc5)[nH]4)cc3)cc2)[nH]1)C(C)C` (some centres not stated), the EC50 with Hepatitis C virus [1] is 0.00631 nM; with Hepatitis C virus [2], 6.31 nM.
As to `COC(=O)N[C@H](C(=O)N1CCC[C@H]1c1ncc(-c2ccc(-c3ccc(-c4cnc([C@@H]5CC6(CN5C(=O)[C@@H](NC(=O)OC)C(C)C)OCCCO6)[nH]4)cc3)cc2)[nH]1)C(C)C`, the values for the EC50 in the test with Hepatitis C virus [1] and in the test on Hepatitis C virus [2] were 0.00794 nM and 0.0251 nM, respectively.
`CN(C)[C@@H](C(=O)N1CCC[C@H]1c1ncc(-c2ccc(-c3ccc(-c4cnc([C@@H]5COC6(CCOCC6)N5C(=O)OCc5ccccc5)[nH]4)cc3)cc2)[nH]1)c1ccccc1`: the EC50 with Hepatitis C virus [1] is 0.00631 nM; with Hepatitis C virus [2] it was 1.58 nM.
For `O=C(Nc1nc(-c2ccccc2)cs1)[C@@H]1CCCN1C(=O)OCc1ccccc1`, the EC50 is 2510 nM in the test with Hepatitis C virus [1] and > 20000 nM with Hepatitis C virus [2].
On the same counts, the results for `O=C(NC1CC1)c1ccc(-c2csc(NC(=O)[C@@H]3CCCN3C(=O)OCc3ccccc3)n2)cc1` are 126 nM and > 20000 nM.
`COC(=O)N[C@@H](C)C(=O)N1C(c2ncc(-c3ccc(-c4ccc(-c5cnc([C@@H]6CCCN6C(=O)[C@@H](NC(=O)OC)C(C)C)[nH]5)cc4)cc3)[nH]2)CCC12CCC(F)(F)CC2` (some centres not stated): the EC50 with Hepatitis C virus [1] was 0.01 nM; in the test on Hepatitis C virus [2] it was 0.631 nM.
As to `COC(=O)N[C@H](C(=O)N1CC2(CCN(C(C)=O)CC2)CC1c1ncc(-c2ccc(-c3ccc(-c4cnc([C@@H]5CCCN5C(=O)[C@@H](NC(=O)OC)C(C)C)[nH]4)cc3)cc2)[nH]1)C(C)C` (mixture of isomers), the EC50 in the test with Hepatitis C virus [1] was 0.2 nM; in the test with Hepatitis C virus [2] it was 10 nM.
As for `COC(=O)N[C@H](C(=O)N1CCC[C@H]1c1ncc(-c2ccc(-c3ccc(-c4cnc([C@@H]5CC6(CN5C(=O)[C@@H](NC(=O)OC)C(C)C)SCCS6)[nH]4)cc3)cc2)[nH]1)C(C)C`, the EC50 is 0.00398 nM in the test on Hepatitis C virus [1] and 0.0794 nM with Hepatitis C virus [2].
Consider `COC(=O)N[C@H](C(=O)N1CCC[C@H]1c1ncc(-c2ccc(-c3ccc(-c4cnc([C@@H]5CC6(CN5C(=O)[C@@H](NC(=O)OC)C(C)C)O[C@@H](C)C[C@H](C)O6)[nH]4)cc3)cc2)[nH]1)C(C)C` (some centres not stated), for which the values for the EC50 in the test on Hepatitis C virus [1] and with Hepatitis C virus [2] were 0.0126 nM and 2 nM, respectively.
Take `COC(=O)N[C@H](C(=O)N1CCC[C@H]1c1ncc(-c2ccc(-c3ccc(-c4cnc(C5CCC6(CCC(F)(F)CC6)N5C(=O)[C@@H](NC(=O)OC)C(C)C)[nH]4)cc3)cc2)[nH]1)C(C)C` (some centres not stated): the EC50 in the test on Hepatitis C virus [1] was 0.0158 nM; in the test on Hepatitis C virus [2] it was 1.58 nM.
As to `COC(=O)N[C@@H](C)C(=O)N1CC2(C[C@H]1c1ncc(-c3ccc(-c4ccc(-c5cnc([C@@H]6CCCN6C(=O)[C@@H](NC(=O)OC)C(C)C)[nH]5)cc4)cc3)[nH]1)OCCCO2`, the EC50 is 0.02 nM with Hepatitis C virus [1] and 0.0794 nM in the test with Hepatitis C virus [2].
Consider `COC(=O)N[C@H](C(=O)N1CC2(CNC2)CC1c1ncc(-c2ccc(-c3ccc(-c4cnc([C@@H]5CCCN5C(=O)[C@@H](NC(=O)OC)C(C)C)[nH]4)cc3)cc2)[nH]1)C(C)C` (mixture of isomers), for which the EC50 is 0.126 nM in the test with Hepatitis C virus [1] and 3.16 nM in the test with Hepatitis C virus [2].
With `COC(=O)N[C@H](C(=O)N1CCC[C@H]1c1ncc(-c2ccc(-c3ccc(-c4cnc(C5CCC6(CCOCC6)N5C(=O)[C@@H](NC(=O)OC)C(C)C)[nH]4)cc3)cc2)[nH]1)C(C)C` (some centres not stated), the EC50 is 0.0631 nM in the test with Hepatitis C virus [1] and 1.58 nM in the test with Hepatitis C virus [2].
Turning to `CC(=O)N1CCC[C@H]1c1ncc(-c2ccc(-c3ccc(-c4cnc([C@@H]5CCCN5C(C)=O)[nH]4)cc3)cc2)[nH]1`, the EC50 in the test with Hepatitis C virus [1] was 126 nM; with Hepatitis C virus [2] it was 794 nM.
As for `COC(=O)N[C@H](C(=O)N1CC2(CC1c1ncc(-c3ccc(-c4ccc(-c5cnc([C@@H]6CCCN6C(=O)[C@@H](NC(=O)OC)C(C)C)[nH]5)cc4)cc3)[nH]1)CN(C(C)=O)C2)C(C)C` (mixture of isomers), the EC50 with Hepatitis C virus [1] was 0.158 nM; with Hepatitis C virus [2], 1.26 nM.
As for `COC(=O)N[C@H](C(=O)N1CC2(CC1c1ncc(-c3ccc(-c4ccc(-c5cnc([C@@H]6CCCN6C(=O)[C@@H](NC(=O)OC)C(C)C)[nH]5)cc4)cc3)[nH]1)CC(F)(F)C2)C(C)C` (mixture of isomers), the 50% effective concentration (EC50) in the test with Hepatitis C virus [1] was 0.00398 nM; in the test on Hepatitis C virus [2], 0.1 nM.
On the same counts, the results for `CNC(=O)N1CC2(CC(c3ncc(-c4ccc(-c5ccc(-c6cnc([C@@H]7CCCN7C(=O)[C@@H](NC(=O)OC)C(C)C)[nH]6)cc5)cc4)[nH]3)N(C(=O)[C@@H](NC(=O)OC)C(C)C)C2)C1` (mixture of isomers) are 0.251 nM and 6.31 nM.
In the case of `CC[C@H](NC(=O)OC)C(=O)N1CC2(C[C@H]1c1ncc(-c3ccc(-c4ccc(-c5cnc([C@@H]6CCCN6C(=O)[C@@H](NC(=O)OC)C(C)C)[nH]5)cc4)cc3)[nH]1)SCCS2`, the EC50 with Hepatitis C virus [1] is 0.00398 nM; in the test on Hepatitis C virus [2], 0.0631 nM.
As for `COC(=O)N[C@H](C(=O)N1CC2(CC1c1ncc(-c3ccc(-c4ccc(-c5cnc([C@@H]6CCCN6C(=O)[C@@H](NC(=O)OC)C(C)C)[nH]5)cc4)cc3)[nH]1)CN(C(=O)OC(C)(C)C)C2)C(C)C` (mixture of isomers), the EC50 with Hepatitis C virus [1] was 0.01 nM; in the test with Hepatitis C virus [2], 1 nM.
Take `COC(=O)N[C@H](C(=O)N1CCC[C@H]1c1ncc(-c2ccc(-c3ccc(-c4cnc(C5CCC6(CCC(F)(F)CC6)N5C(C)=O)[nH]4)cc3)cc2)[nH]1)C(C)C` (some centres not stated): the EC50 in the test with Hepatitis C virus [1] was 0.1 nM; with Hepatitis C virus [2], 25.1 nM.
On the same counts, the results for `CC[C@H](NC(=O)OC)C(=O)N1C(c2ncc(-c3ccc(-c4ccc(-c5cnc([C@@H]6CCCN6C(=O)[C@@H](NC(=O)OC)C(C)C)[nH]5)cc4)cc3)[nH]2)CCC12CCC(F)(F)CC2` (some centres not stated) are 0.0158 nM and 1 nM.
With `COC(=O)N[C@H](C(=O)N1CCC[C@H]1c1ncc(-c2ccccc2)[nH]1)C(C)C`, the EC50 with Hepatitis C virus [1] was 200 nM; in the test with Hepatitis C virus [2], 501 nM.
In the case of `COC(=O)N[C@H](C(=O)N1CC2(CCS(=O)(=O)CC2)CC1c1ncc(-c2ccc(-c3ccc(-c4cnc([C@@H]5CCCN5C(=O)[C@@H](NC(=O)OC)C(C)C)[nH]4)cc3)cc2)[nH]1)C(C)C` (mixture of isomers), the EC50 with Hepatitis C virus [1] is 0.0398 nM; with Hepatitis C virus [2], 0.398 nM.
In the case of `COC(=O)N[C@H](C(=O)N1CCC[C@H]1c1ncc(-c2ccc(-c3ccc(-c4cnc(C5CCC6(CCS(=O)(=O)CC6)N5C(=O)[C@@H](NC(=O)OC)C(C)C)[nH]4)cc3)cc2)[nH]1)C(C)C` (some centres not stated), the values for the EC50 in the test with Hepatitis C virus [1] and in the test on Hepatitis C virus [2] were 0.316 nM and 12.6 nM, respectively.
